The values below come from patent US11484533B2, “Methods and compositions for treating obesity” (UNIVERSITY OF SOUTH CAROLINA, priority 2019, dated 2022).

The subject of data set [1] is DIO mice. Briefly: Diet-induced obesity (DIO) mice treated with SR141716A: body weight, caloric intake, DEXA body composition. Format: in vivo, C57BL/6J male mice. How it is done: (§1) C57BL/6J male mice (Jackson Laboratory, Bar Harbor, Me.) were fed HFD consisting of 60% Kcal from fat (D12492, Research Diets Inc, New Brunswick, N.J.) for 12 weeks before starting the intervention treatment with SR141716A. Additionally, age-matched C57BL/6J male mice were fed a low fat diet (LFD) consisting of 10% Kcal from fat (D12450J, Research Diets Inc, New Brunswick, N.J.) to develop lean controls. SR141716A was obtained from NIDA and administered at a dose of 10 mg/kg daily by oral gavage for 4 weeks, beginning after 12 weeks of diet and ending after 16 weeks. A pair-fed control group was used (HFD-PFSR) in which food intake was restricted to the amount of daily food intake of the HFD+SR group. All mice were maintained in an AAALAC-accredited animal facility at the University of South Carolina, School of Medicine (Columbia, S.C.). All procedures were performed according to NIH guidelines under protocols approved by the Institutional Animal Care and Use Committee.
The body composition in mice was analyzed by dual-energy X-ray absorptiometry (DEXA, LUNAR, Madison, Wis.). The mice were anesthetized and placed in the prone position on the specimen tray to allow scanning of the entire body. For food intake measurements, mice were given a defined amount of large intact food pellet weekly, or daily for the HFD-PFSR group. Food weight was measured using a balance with a precision of 0.01 g. Solid food intake was corrected for any visible spillage.
To study the effects of CB1 antagonist on obesity parameters, DIO mice that were fed a 60% HFD for 12 weeks were treated with SR141716A (SR) by daily oral gavage for 4 weeks (FIG. 1A). All other experimental groups were treated with the vehicle (Veh) 0.1% Tween® 80. In addition to the HFD+SR group, other experimental groups included mice fed a 10% low-fat control diet (LFD) (LFD+Veh), ad-libitum HFD-fed mice (HFD+Veh), and HFD-fed mice that were pair-fed to the HFD+SR group (HFD-PFSR) (FIG. 1B). […] At the baseline of the study, the mice were stratified into groups balanced by mean fat mass. […] Fasting parameters including blood glucose, insulin, insulin resistance index (HOMA-IR), total cholesterol and triglycerides were examined pre- and post- the 4-week intervention with SR compound.

Data set [2] deals with DIO mice. Description: Fasting metabolic parameters in DIO mice, pre- and post-intervention. Format: in vivo, C57BL/6J male mice. As to conditions: HFD+SR vs HFD+Veh and HFD-PFSR; pre- and post- 4-week intervention; 5 h fasted. How it is done:
as §1, with “All mice were maintained in an AAALAC-accredited animal facility at the University of South Carolina, School of Medicine (Columbia, S.C.). All procedures were performed according to NIH guidelines under protocols approved by the Institutional Animal Care and Use Committee.” left out
Measurements of blood glucose, insulin, total cholesterol, and triglycerides were performed in animals fasted for 5 hours. […] The glucose level in whole blood was measured with a glucometer (Bayer, Leverkusen, Germany). Insulin concentration was determined in isolated plasma using an ELISA kit (Abcam, Cambridge, Mass.). Total cholesterol (Genzyme, Kent, United Kingdom) and triglycerides (Pointe Scientific, Canton, Mich.) were determined by colorimetric enzymatic reaction according to the manufacturer's instructions. To quantify insulin resistance, the homeostatic model assessment of insulin resistance index (HOMA-IR) was calculated as previously described.

The test system of data set [3] is epididymal adipose tissue. Description: qRT-PCR of macrophage polarization genes in epididymal fat of DIO mice. Format: in vivo, C57BL/6J male mice. The procedure:
as §1
After 4 weeks of treatment, mice were euthanized for tissue collection. Tissues were removed, weighed, and immediately processed to single cell suspension, snap-frozen in liquid nitrogen and stored at −80° C., or fixed in 10% formalin.
ATM RNA was isolated by miRNeasy Mini Kit (Qiagen). […] Fold change in mRNA expression was calculated using the comparative cycle method (2^−ΔΔCt).

Data set [4] concerns adipose tissue macrophages (ATMs). Description: qRT-PCR and Western blot in adipose tissue macrophages (ATM) of treated DIO mice. The data set is classed as in vivo, C57BL/6J male mice. The procedure: Epididymal fat pads of mice were excised and placed in gentleMACS™ C Tubes (Miltenyi Biotec, San Diego, Calif.) containing digestion medium (HBSS, 2 mg/ml collagenase (Sigma-Aldrich, St. Louis, Mo.) and 2% BSA), followed by homogenization utilizing a gentleMACS™ Dissociator (Miltenyi Biotec). After incubation at 37° C. for 30 minutes with gentle shaking, the cell suspension was filtered through a 100-μm filter and then spun at 300 g for 5 minutes to separate floating adipocytes from the stromal vascular fraction (SVF) pellet. Isolation of F4/80+ ATMs from the SVF was performed using EasySep™ FITC Positive Selection Kit (STEMCELL Technologies, Vancouver, B.C.). FITC-anti-F4/80 antibodies (Clone: BM8, BioLegend®, San Diego, Calif.) were used to label the cells for positive selection. Isolated cells were lysed for RNA analysis in QIAzol (Qiagen, Valencia, Calif.) and stored at −80° C. until RNA purification.
ATM RNA was isolated by miRNeasy Mini Kit (Qiagen). For RNA extraction from whole adipose tissue, 1 mg of adipose tissue was homogenized in RNA-Solv® Reagent with OBI's HiBind® technology reagent (Omega Bio-tek, Norcross, Ga.) and total RNA was isolated as previously described (31). RNA quality was verified by NanoDrop™ 2000C (Thermo Scientific™, Waltham, Mass.). Purified RNA (0.5-1 μg) was reverse-transcribed using miScript cDNA Synthesis Kit (Qiagen), and qRT-PCR analysis was conducted using SsoAdvanced™ Universal SYBR® Green Supermix kit (Bio-Rad, Hercules, Calif.). Fold change in mRNA expression was calculated using the comparative cycle method (2^−ΔΔCt).
Western blot analyses were carried out according to standard protocols with antibodies raised against Netrin-1 (R&D Systems, Minneapolis, Minn.) or γ-tubulin (Sigma-Aldrich, St. Louis, Mo.), which was used as a loading control.

Data set [5] relates to macrophage CB1. Briefly: BMDM treated in vitro with 3T3-L1 adipocyte conditioned medium and SR141716A. The data set is classed as cell-based, mouse. The settings on record: adipocyte conditioned medium, vs DMSO. The procedure:
TNF, IL-6, and IFNγ ELISA kits were purchased from BioLegend. Netrin-1 ELISA kits were purchased from USCN Life Science (Houston, Tex.). Concentrations were measured in cell supernatants using mouse standards according to the manufacturer's guidelines.
Next, to confirm that the M2 polarization and decreased ATM retention observed in HFD+SR treated mice was a direct effect of CB1 blockade and not a secondary effect due to weight loss or other factors, primary macrophages were treated in vitro with 3T3-L1 adipocyte conditioned media and SR141716A or DMSO vehicle control. […] These findings confirmed that blockade of macrophage CB1 signaling has anti-inflammatory effects.

The test system of data set [6] is thioglycollate-elicited peritoneal macrophages. Description: Migration of peritoneal macrophages towards CCL19. The data set is classed as cell-based, mouse. As to conditions: SR141716A 10^−6 M vs DMSO; CCL19 500 ng/ml; 3T3-L1 conditioned medium. The procedure:
The migration of macrophages to CCL19 (500 ng/ml, R&D Systems) was assessed by FluoroBlock™ permeable inserts (Corning®, Tewksbury, Mass.) and Cytation™5 imaging (BioTek, Winooski, Vt.). Peritoneal macrophages were harvested from mice primed with 1 ml of 3% (wt/vol) thioglycolate (i.p.) to elicit peritoneal exudates with macrophage number peaking on day 4. Macrophages were collected in euthanized mice by intraperitoneal wash. For tracking migration towards chemoattractants, macrophages were labeled with DilC12(3) fluorescent dye (Corning®, Tewksbury, Mass.). Macrophages were treated with conditioned media from 3T3-L1 adipocytes as described and treated either with SR141716A (10^−6 M) or DMSO as the vehicle control.
To test this, thioglycollate-elicited peritoneal macrophages were isolated and cultured them in 3T3-L1 adipocyte conditioned medium and treated them with SR141716A or vehicle. Their migration rate towards CCL19 was measured because CCL19 is the primary chemokine implicated in emigration of tissue macrophages towards draining lymph nodes.

Data set [7] concerns obese patients. As to conditions: cited from earlier work.
For data set [8], the system named is DIO mice. The settings on record: cited from earlier work.
Where [9] appears, read: DIO mice, 10 mg/kg daily oral gavage, 4 weeks.
Setting [10] is: after 4 weeks of treatment, HFD+SR vs both HFD+Veh and HFD-PFSR, DEXA.
Setting [11] is: epididymal adipose tissue of DIO mice, previous report.

For the molecule `Cc1c(C(=O)NN2CCCCC2)nn(-c2ccc(Cl)cc2Cl)c1-c1ccc(Cl)cc1` [SR141716A, 5-(4-chlorophenyl)-1-(2,4-dichlorophenyl)-4-methyl-N-piperidin-1-ylpyrazole-3-carboxamide], in data set [1] (setting [9]), the body weight entry was “acute and persistent weight loss”; the calorie intake result was “transient reduction of calorie intake”. The “changes in lean mass” value in data set [1] (after 4 weeks of treatment, HFD+SR vs HFD+Veh and HFD-PFSR, DEXA) is “not significant”. In data set [1] (setting [10]), the fat mass entry is “reduction in the fat mass and fat percentage was significant”; the fat percentage entry was “reduction in the fat mass and fat percentage was significant”. For the same molecule, the “metabolic parameters (fasting blood glucose, insulin, HOMA-IR, total cholesterol, triglycerides)” value in data set [2] is “improvement in metabolic parameters”. Besides, in data set [3], the “Arg1 (M2) expression” value is on record as “increased expression of Arg1” and the “Nos2 (M1) expression” value was “lowered Nos2 expression”. The “Netrin-1 expression at protein and transcription level” value in data set [4] (ATM, HFD+SR vs HFD+Veh, Western blot and qRT-PCR) is recorded as “significantly reduced”. In addition, the miR-466 family expression entry in data set [4] (ATMs, microarray validated by qRT-PCR, regardless of calorie intake) is given as “down-regulated”. Besides, in data set [4] (ATMs, qRT-PCR), the Agap2 expression entry is on record as “increased” and the miR-762 expression result is “reduced”. For the same molecule, the Unc5b expression entry in data set [4] (HFD+SR vs HFD+Veh) is given as “downregulated”. Further, in data set [5] (BMDM), the Klf4 expression result is “induction of Klf4 and Stat6”; the Stat6 expression entry was “induction of Klf4 and Stat6”. For the same molecule, in data set [5] (macrophages, ELISA), the Netrin-1 secretion result is reported as “reduced”. The “migration towards CCL19” value in data set [6] is recorded as “higher migration towards CCL19”. For the same molecule, the weight loss entry in data set [7] (obese patients, compared with placebo) is “greater weight loss”. The adverse effects result in data set [7] (reason for removal from the market) is recorded as “adverse psychiatric effects”. The “number of pro-inflammatory M1 macrophages in adipose tissue” value in data set [8] (HFD+SR vs HFD+Veh, previously demonstrated) is listed as “significant decrease”. In data set [8] (setting [11]), the ATM infiltration entry was “reduces both ATM infiltration and M1 polarization”; the M1 polarization result was “reduces both ATM infiltration and M1 polarization”.
